# Tests used:
# [1] = Solubility determined by visual inspection; type: physicochemical
# Experimental: The solubility was determined as follows: a certain amount of the sample was weighed and the solvent was added thereto in portions with stirring or ultrasonication to accelerate dissolution; the amount of the consumed solvent was recorded once the sample was dissolved. […] A certain volume of the solution was taken, followed by filtration, concentration, dissolved with a certain volume of other suitable solvents and subjected to HPLC measurement to obtain accurate data of the solubility.
# [2] = Solid-state stability test; type: physicochemical
# Experimental: An appropriate amount of the drugs were placed in the surface dish, spread to a thickness of 3-5 mm, and exposed in high temperature, high temperature and high humidity, illumination and oxidation conditions for 10 days respectively, and the solid-state characterization was performed. The purity and the number of impurities 0.05%) of the samples for testing were determined by HPLC, and compared with the samples on day 0. The exposure conditions are:
# High temperature (an oven with T=60° C.);
# Illumination (25° C., a 4500±500 lx light incubator);
# Oxidation (25° C., a closed container containing urea hydrogen peroxide).
# Solution stability test = type: physicochemical
# Experimental: About 15 mg of the sample was weighed accurately, dissolved with 25 mL of the test solvent (10% aqueous acetone solution, pH=4.0 B-R buffer solution, SGF, SIF) via ultrasound for 20 minutes. The solution was divided into four portions and placed in the clear glass vials, followed by sealing. The samples were exposed in different environments and sampled on day 0 and day 5. The purity of each sample was determined by HPLC, and the number of impurities greater than 0.05% was calculated and compared with the samples on day 0. The exposure environments are:
# Room temperature and light-proof test, 25° C.; […]
# Illumination experiment (4500±500 lx), 25° C.;
# Oxidation experiment (3% v/v hydrogen peroxide), 25° C.
# [3] = Comparison of absorption in rats after intragastric administration of free base and salt (plasma pharmacokinetics); type: in vivo, SD rats; conditions: for AUC (0-t) / MRT (0-T) / Tmax / t1/2 / Cmax: SD rats, 20 μmol/kg, intragastric administration, plasma
# Experimental: The blood sample was centrifuged at 8000 RPM for 5 minutes, followed by the isolation of the upper plasma. […] 200 μL of the supernatant was taken and centrifuged again for 10 minutes. 50 μL of the supernatant was injected in a 96-well plate. The plasma drug concentration was determined by LC/MS/MS, and the corresponding pharmacokinetic parameters were calculated.
# [4] = Dynamic vapor sorption (DVS), isothermal absorption analysis; type: physicochemical
# Experimental: In the present invention, according to the common knowledge in the art, the amount of water absorption obtained from the dynamic vapor sorption (DVS) pattern is expressed in percentage by weight.
# The isothermal absorption analysis (DVS) data was collected from TA Instruments Q5000 TGA. The software for instrument control was Thermal Advantage and software for analysis was Universal Analysis. 1-10 mg of the sample was generally placed in a platinum crucible, and the weight change of the sample during the relative humidity changing from 20% to 80% was recorded by the TA software. Depending on the specifics of the sample, different steps of sample adsorption and desorption were also involved.
# [5] = Water solubility at 20° C. determined by HPLC; type: physicochemical
# [6] = 10 d, High temperature (oven, T=60° C.)
# [7] = 10 d, High temperature and high humidity (40° C., 75% relative humidity)
# [8] = 10 d, Illumination (25° C., 4500±500 lx)
# [9] = 10 d, Oxidation (25° C., closed container with urea hydrogen peroxide)
# [10] = 10% aqueous acetone solution, 0 d, impurities greater than 0.05%
# [11] = 10% aqueous acetone solution, 5 d, High temperature
# [12] = 10% aqueous acetone solution, 5 d, High temperature and high humidity
# [13] = 10% aqueous acetone solution, 5 d, Illumination (4500±500 lx, 25° C.)
# [14] = 10% aqueous acetone solution, 5 d, Oxidation (3% v/v hydrogen peroxide, 25° C.)
# [15] = B-R Buffer solution (pH=4.0), 0 d, impurities greater than 0.05%
# [16] = B-R Buffer solution (pH=4.0), 5 d, High temperature
# [17] = B-R Buffer solution (pH=4.0), 5 d, High temperature and high humidity
# [18] = B-R Buffer solution (pH=4.0), 5 d, Illumination (4500±500 lx, 25° C.)
# [19] = B-R Buffer solution (pH=4.0), 5 d, Oxidation (3% v/v hydrogen peroxide, 25° C.)
# [20] = SGF, 0 d, impurities greater than 0.05%
# [21] = SGF, 5 d, High temperature and high humidity
# [22] = SGF, 5 d, Illumination (4500±500 lx, 25° C.)
# [23] = SGF, 5 d, Oxidation (3% v/v hydrogen peroxide, 25° C.)
# [24] = SIF, 0 d, impurities greater than 0.05%
# [25] = SIF, 5 d, High temperature and high humidity
# [26] = SIF, 5 d, Illumination (4500±500 lx, 25° C.)
# [27] = SIF, 5 d, Oxidation (3% v/v hydrogen peroxide, 25° C.)
compound,measurement,setting,value
C=C(F)C(=O)Nc1cc2c(Nc3ccc(F)c(Cl)c3)ncnc2cc1OCCCN1CCOCC1.O=S(=O)(O)O.O=S(=O)(O)O [disulfate of the quinazoline derivative],visual solubility in water,[1]; 20° C.,910 to 1000 µg/mL
C=C(F)C(=O)Nc1cc2c(Nc3ccc(F)c(Cl)c3)ncnc2cc1OCCCN1CCOCC1.O=S(=O)(O)CCS(=O)(=O)O,Number of impurities,[2]; 0 d,2
same,Purity,[2]; 0 d,99.0%
same,Number of impurities,[2]; [6],2
same,Purity,[2]; [6],99.0%
same,Number of impurities,[2]; [7],2
same,Purity,[2]; [7],99.0%
same,Number of impurities,[2]; [8],2
same,Purity,[2]; [8],99.0%
same,Number of impurities,[2]; [9],2
same,Purity,[2]; [9],99.0%
same,Number of impurities,Solution stability test; [10],1
same,Number of impurities,Solution stability test; [11],1
same,Purity,Solution stability test; [11],99.0%
same,Number of impurities,Solution stability test; [12],3
same,Purity,Solution stability test; [12],98.1%
same,Number of impurities,Solution stability test; [13],1
same,Number of impurities,Solution stability test; [14],7
same,Purity,Solution stability test; [14],70.8%
same,Purity,"Solution stability test; B-R Buffer solution (pH=4.0), 0 d",99.0%
same,Number of impurities,Solution stability test; [15],1
same,Number of impurities,Solution stability test; [16],1
same,Purity,Solution stability test; [16],99.0%
same,Number of impurities,Solution stability test; [17],3
same,Purity,Solution stability test; [17],97.7%
same,Number of impurities,Solution stability test; [18],1
same,Purity,Solution stability test; [18],99.0%
same,Number of impurities,Solution stability test; [19],15
same,Purity,Solution stability test; [19],44.0%
same,Purity,"Solution stability test; SGF, 0 d",99.0%
same,Number of impurities,Solution stability test; [20],1
same,Number of impurities,"Solution stability test; SGF, 5 d, High temperature",2
same,Number of impurities,Solution stability test; [21],2
same,Purity,Solution stability test; [21],94.5%
same,Number of impurities,Solution stability test; [22],2
same,Number of impurities,Solution stability test; [23],3
same,Purity,"Solution stability test; SIF, 0 d",74.8%
same,Number of impurities,Solution stability test; [24],2
same,Number of impurities,"Solution stability test; SIF, 5 d, High temperature",1
same,Purity,"Solution stability test; SIF, 5 d, High temperature",50.0%
same,Number of impurities,Solution stability test; [25],6
same,Purity,Solution stability test; [25],36.5%
same,Number of impurities,Solution stability test; [26],13
same,Purity,Solution stability test; [26],25.2%
same,Number of impurities,Solution stability test; [27],7
same,Purity,Solution stability test; [27],30.8%
same,visual solubility in water,[1]; room temperature,1000 to 2000 µg/mL
same,AUC (0-t),[3],195.56 ± 84.51 µM·min
same,MRT (0-T),[3],5.3317 ± 0.9937 h
same,Tmax,[3],1.333 ± 0.2887 h
same,t1/2,[3],3.744 ± 0.9165 h
same,Cmax,[3]; listed as monoethanedisulfonate,390 ± 160 nM
same,"AUC (0-t) and Cmax, comparison in words","[3]; rats, oral, same dose, free base and 6 salts",relatively low
same,"hygroscopicity, in words",[4],not easy to absorb moisture
C=C(F)C(=O)Nc1cc2c(Nc3ccc(F)c(Cl)c3)ncnc2cc1OCCCN1CCOCC1.O=S(=O)(O)O,visual solubility in water,[1]; 20° C.,1000 to 2000 µg/mL
same,AUC (0-t),[3],591.00 ± 29.76 µM·min
same,MRT (0-T),[3],5.7252 ± 0.7072 h
same,Tmax,[3],1.167 ± 0.2887 h
same,t1/2,[3],3.8468 ± 2.704 h
same,Cmax,[3]; listed as monosulfate,1660 ± 270 nM
same,"hygroscopicity, in words",[4],fairly hygroscopic
C=C(F)C(=O)Nc1cc2c(Nc3ccc(F)c(Cl)c3)ncnc2cc1OCCCN1CCOCC1.O=S(=O)(O)c1ccccc1,Number of impurities,[2]; 0 d,2
same,Number of impurities,[2]; [6],2
same,Number of impurities,[2]; [7],2
same,Number of impurities,[2]; [8],2
same,Number of impurities,[2]; [9],2
same,Purity,"Solution stability test; 10% aqueous acetone solution, 0 d",98.2%
same,Number of impurities,Solution stability test; [10],1
same,Number of impurities,Solution stability test; [11],1
same,Purity,Solution stability test; [11],97.9%
same,Number of impurities,Solution stability test; [12],3
same,Number of impurities,Solution stability test; [13],1
same,Purity,Solution stability test; [13],97.6%
same,Number of impurities,Solution stability test; [14],7
same,Purity,Solution stability test; [14],60.8%
same,Number of impurities,Solution stability test; [15],2
same,Number of impurities,Solution stability test; [16],3
same,Purity,Solution stability test; [16],97.2%
same,Number of impurities,Solution stability test; [17],3
same,Purity,Solution stability test; [17],97.2%
same,Number of impurities,Solution stability test; [18],1
same,Number of impurities,Solution stability test; [19],12
same,Purity,Solution stability test; [19],38.1%
same,Number of impurities,Solution stability test; [20],1
same,Number of impurities,"Solution stability test; SGF, 5 d, High temperature",2
same,Number of impurities,Solution stability test; [21],2
same,Purity,Solution stability test; [21],94.4%
same,Number of impurities,Solution stability test; [22],1
same,Number of impurities,Solution stability test; [23],3
same,Purity,Solution stability test; [23],81.7%
same,Purity,"Solution stability test; SIF, 0 d",80.2%
same,Number of impurities,Solution stability test; [24],2
same,Number of impurities,"Solution stability test; SIF, 5 d, High temperature",1
same,Purity,"Solution stability test; SIF, 5 d, High temperature",58.7%
same,Number of impurities,Solution stability test; [25],8
same,Purity,Solution stability test; [25],42.0%
same,Number of impurities,Solution stability test; [26],9
same,Purity,Solution stability test; [26],10.0%
same,Purity,Solution stability test; [27],Complete
same,water solubility at 20° C. determined by HPLC,[5],60.4 µg/mL
same,AUC (0-t),[3],972.26 ± 291.88 µM·min
same,MRT (0-T),[3],5.9522 ± 0.2533 h
same,Tmax,[3],1.333 ± 0.5773 h
same,t1/2,[3],5.0897 ± 2.1273 h
same,Cmax,[3]; listed as monobenzenesulfonate,2300 ± 470 nM
same,"hygroscopicity, in words",[4],not easy to absorb moisture
